From patent US20070197524A1, “Fluorenes and carbazoles as ligands of the EP2 receptor” (priority 2005, published 2007)
pEC50, pIC50: −log10 of the molar value.

Key:
[1] = target: T1, human prostaglandin E2 (subtype EP2) receptor (Homo sapiens, UniProt P43116); assay: cAMP antagonism assay (HTRF cAMP detection, in presence of PGE2); type: cell-based; conditions: cAMP antagonism test
T1 construct: host or cells: cells in a cell culture plate
Excerpt: 1. Detection of the Antagonism of the Human Prostaglandin E2 (Subtype EP2) Receptor Signal
1.1 Principle of Detection
(§1) The binding of PGE2 to the EP2 subtype of the human PGE2 receptor induces activation of membrane-associated adenylate cyclases and leads to the formation of cAMP. In the presence of the phosphodiesterase inhibitor IBMX, cAMP which has accumulated due to this stimulation and been released by cell lysis is employed in a competitive detection method. In this assay, the cAMP in the lysate competes with cAMP-XL665 for binding of an Eu cryptate-labelled anti-cAMP antibody.
(§2) The two signals are measured in a suitable measuring instrument with a time lag, i.e. after the background fluorescence has declined.
1.2.1 Antagonism Assay (Data for Each Well of a 384-Well Plate):
(§3) The substance solutions (0.75 μl) introduced into an assay plate and 30% DMSO are dissolved in 16 μl of a KRSB+IBMX stimulation solution (1×Krebs-Ringer Bicarbonate Buffer; Sigma-Aldrich # K-4002; including 750 μM 3-isobutyl-1-methylxanthine Sigma-Aldrich # I-7018), and then 15 μl thereof are transferred into a media-free cell culture plate which has been washed with KRSB shortly beforehand.
After preincubation at room temperature (RT) for 30 minutes, 5 μl of a 4×PGE2 solution (11 nM) are added, and incubation is carried out in the presence of the agonist at RT for a further 60 min (volume: ˜20 μl) before the reaction is then stopped by adding 5 μl of lysis buffer and incubated at RT for a further 20 min (volume: ˜25 μl). The cell lysate is then transferred into a measuring plate and measured in accordance with the manufacturer's information (cyclic AMP kit Cisbio International # 62AMPPEC).

[2] = target: T1, human prostaglandin E2 (subtype EP2) receptor; assay: cAMP agonism assay (HTRF cAMP detection); type: cell-based; conditions: cAMP agonism test; read-out: Agonism [ED50, μm]
Method: as §1, §2
1.2.2 Agonism Assay (Data for Each Well of a 384-Well Plate):
as §3
After incubation at room temperature (RT; volume: ˜15 μl) for 60 minutes, the reaction is then stopped by adding 5 μl of lysis buffer and incubated at RT for a further 20 min (volume: ˜20 μl). The cell lysate is then transferred into a measuring plate and measured in accordance with the manufacturer's information (cyclic AMP kit Cisbio International # 62AMPPEC).

cumulus-oocyte complexes = assay: Cumulus expansion assay in vitro; type: cell-based, mice; conditions: concentration of 100-200 μm; test substances compete with PGE2
Method: 2.2 Cumulus Expansion Assay in Vitro
Folliculogenesis is induced in immature female mice (strain: CD1 (ICR) from Charles River) at an age of 14-18 days by a single dose (intraperitoneal) of 10 I.U. of PMSG (Pregnant Mare Serum Gonadotropin; Sigma G-4877, Lot 68H0909). 47-50 hours after the injection, the ovaries are removed and the cumulus-oocyte complexes are removed. The cumulus complex is not yet expanded at this stage.
The cumulus-oocyte complexes are then incubated with prostaglandin E2 (PGE2) (1 μM), vehicle control (ethanol) or test substances for 20-24 hours. Medium: alpha-MEM medium with 0.1 mM IBMX, pyruvates (0.23 mM) glutamines (2 mM), pen/strep 100 IU/ml pen. and 100 μg/ml strep. and HSA (8 mg/ml). Cumulus expansion is then established through the division into four stages (according to Vanderhyden et al. Dev Biol. 1990 August; 140 (2):307-317).

T1 sequence (P43116 whole entry): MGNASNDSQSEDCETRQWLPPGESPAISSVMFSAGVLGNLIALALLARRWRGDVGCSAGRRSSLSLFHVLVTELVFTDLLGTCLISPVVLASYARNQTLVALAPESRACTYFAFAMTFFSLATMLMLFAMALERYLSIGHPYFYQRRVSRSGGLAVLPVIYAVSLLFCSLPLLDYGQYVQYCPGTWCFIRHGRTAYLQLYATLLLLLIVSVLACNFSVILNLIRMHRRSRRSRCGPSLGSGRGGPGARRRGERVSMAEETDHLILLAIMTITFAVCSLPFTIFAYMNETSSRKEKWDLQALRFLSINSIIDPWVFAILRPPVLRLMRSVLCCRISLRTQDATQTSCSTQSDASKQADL

Structure (SMILES)	pIC50 [1]	pEC50 [2]	suppression of cumulus expansion (cumulus-oocyte complexes)
O=C(O)Cn1c2ccccc2c2ccc(OCCCCCOc3ccccc3)cc21 [XIII/140, [2-(5-phenoxypentyloxy)carbazol-9-yl]acetic acid]	5.17	< 4.72	–
CCOC(=O)Cn1c2ccccc2c2ccc(OCCCCOc3cccc(C(=O)OC)c3)cc21 [XII/5, Methyl 3-[4-(9-ethoxycarbonylmethyl-9H-carbazol-2-yloxy)butoxy]benzoate]	< 4.72	5.20	–
CC(=O)c1cccc(OCCCCOc2ccc3c4ccccc4n(CC(=O)O)c3c2)c1 [XIII/12, {2-[4-(3-acetylphenoxy)butoxy]carbazol-9-yl}acetic acid]	5.20	< 4.72	–
CC(C)Oc1ccc2c(=O)c3cc(C(=O)O)ccc3oc2c1 [AH6809, reference compound]	< 4.72	< 4.72	about 20%
O=C(O)CC1c2ccccc2-c2ccc(OCCCCOc3cccc(O)c3)cc21 (racemic) [VI/3, (R/S) {2-[4-(3-Hydroxyphenoxy)butoxy]-9H-fluoren-9-yl}acetic acid]	5.19	< 4.72	~50%
O=C(O)Cn1c2ccccc2c2ccc(OCCCCOc3ccc(-n4cccc4)cc3)cc21 [XIII/22, {2-[4-(4-pyrrol-1-ylphenoxy)butoxy]carbazol-9-yl}acetic acid]	5.92	< 4.72	–
O=C(O)Cn1c2ccccc2c2ccc(OCCCOc3ccccc3)cc21 [XIII/85, [2-(3-phenoxypropoxy)carbazol-9-yl]acetic acid]	5.17	< 4.72	–
O=C(O)CCn1c2ccccc2c2ccc(OCCCCOc3ccc4c(c3)CCC(=O)N4)cc21 [XIII/67, 3-{2-[4-(2-oxo-1,2,3,4-tetrahydroquinolin-6-yloxy)butoxy]carbazol-9-yl}propionic acid]	5.49	< 4.72	–
CC(=O)Nc1cccc(OCCCCOc2ccc3c(c2)C(CC(=O)O)c2ccccc2-3)c1 (racemic) [VI/4, (R/S) {2-[4-(3-Acetylaminophenoxy)butoxy]-9H-fluoren-9-yl}acetic acid]	< 4.72	5.20	–
